Reference: patent US20260159512A1, “BCAT2 INHIBITORS” (AGIOS PHARMACEUTICALS, INC., priority 2021, published 2026)

Legend:
BCAT2 [1] = biological target: T1, BCAT2 (Homo sapiens, UniProt O15382); assay: BCAT2 in vitro enzyme inhibition assay (resazurin/diaphorase-coupled fluorescence); type: biochemical; parameters: key to BCAT2 Enzyme Inhibition: A: less than or equal to 0.100 μM; B: greater than 0.100 and less than or equal to 0.500 μM; C: greater than 0.500 and less than or equal to 1.000 μM; d: greater than 1.000 μM; E: no fit; conditions: average where tested multiple times
T1 sequence (O15382 28-392): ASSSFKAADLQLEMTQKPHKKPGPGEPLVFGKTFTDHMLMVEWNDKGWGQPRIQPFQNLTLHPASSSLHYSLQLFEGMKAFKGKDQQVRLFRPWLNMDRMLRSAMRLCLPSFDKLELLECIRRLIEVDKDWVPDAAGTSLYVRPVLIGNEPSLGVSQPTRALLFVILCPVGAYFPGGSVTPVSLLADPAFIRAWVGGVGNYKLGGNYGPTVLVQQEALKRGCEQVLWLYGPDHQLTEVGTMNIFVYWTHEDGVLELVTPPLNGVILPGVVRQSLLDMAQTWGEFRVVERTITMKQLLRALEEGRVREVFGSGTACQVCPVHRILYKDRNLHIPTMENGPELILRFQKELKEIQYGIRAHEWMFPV
Outline: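 Coupled fluorescence readout: glutamate formed from L-leucine/α-ketoglutarate transamination drives GDH/NAD/diaphorase reduction of resazurin (Ex 540/Em 590). Human BCAT2 was first exposed 1 h at room temperature to compound, top final 100 μM in 3-fold, 10-point series; substrate reaction ran 1 h before SDS quench, in technical duplicate with DMSO max and enzyme-free min controls.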

BCAT2 [2] = biological target: T1, BCAT2; assay: BCAT2 in vitro cell inhibition using engineered A549 cells (KMV cell assay, 13C6-KMV by LC-MS/MS); type: cell-based; parameters: The result was an engineered A549 cell line that expressed endogenous BCAT2; endogenous in cells; host or cells: A549 cells with MUT and BCAT1 knocked out by CRISPR/CAS9; key to BCAT2 Cell Inhibition: A: less than or equal to 0.100 μM; B: greater than 0.100 and less than or equal to 0.500 μM; C: greater than 0.500 and less than or equal to 1.000 μM; d: greater than 1.000 μM; E: no fit; conditions: average where tested multiple times

| BCAT2 Enzyme Inhibition (BCAT2 [1]) | BCAT2 Cell Inhibition (BCAT2 [2]) | IC50 (BCAT2 [1]) | IC50 (BCAT2 [2]) | SMILES |
| --- | --- | --- | --- | --- |
| E | E | – | – | CO[C@@H]1[C@H](NC(=O)c2ncc(Cl)s2)CCC[C@@H]1n1c(-c2ccccc2F)nc2cnc(-c3nc[nH]n3)cc21 [Example 434, 5-chloro-N-((1R,2R,3S)-3-(2-(2-fluorophenyl)-6-(1H-1,2,4-triazol-3-yl)-1H-imidazo[4,5-c]pyridin-1-yl)-2-methoxycyclohexyl)thiazole-2-carboxamide] |
| – | E | > 1000 nM | – | O=C(N[C@H]1CCC[C@@H](n2c(Oc3cc[nH]n3)nc3cnc(-c4nc[nH]n4)cc32)C1)c1ncc(Cl)s1 [Example 191, N-((1S,3R)-3-(2-((1H-pyrazol-3-yl)oxy)-6-(1H-1,2,4-triazol-3-yl)-1H-imidazo[4,5-c]pyridin-1-yl)cyclohexyl)-5-chlorothiazole-2-carboxamide] |
| – | E | > 1000 nM | – | CC(C)Cc1nc2cnc(-n3nccn3)cc2n1[C@@H]1COC[C@H](NC(=O)c2ccc(Cl)s2)C1 (single isomer, unassigned) [Example 140] |
| – | – | 100 to 500 nM | > 1000 nM | CC(C)(C)Cc1nc2cnc(-c3ccccn3)cc2n1[C@H]1CCC[C@@H](NC(=O)c2ncc(Cl)s2)[C@@H]1O [Example 390, 5-chloro-N-((1R,2S,3S)-2-hydroxy-3-(2-neopentyl-6-(pyridin-2-yl)-1H-imidazo[4,5-c]pyridin-1-yl)cyclohexyl)thiazole-2-carboxamide] |
| – | E | 500 to 1000 nM | – | CC(C)C(F)(F)c1nc2cnc(-c3ccccn3)cc2n1[C@@H]1CCC[C@H](NC(=O)c2ncc(Cl)s2)C1 [Example 318, 5-chloro-N-((1S,3R)-3-(2-(1,1-difluoro-2-methylpropyl)-6-(pyridin-2-yl)-1H-imidazo[4,5-c]pyridin-1-yl)cyclohexyl)thiazole-2-carboxamide] |
| – | E | > 1000 nM | – | CC(C)Cc1nc2cnc(N3CCC[C@H]3C#N)cc2n1[C@@H]1CCC[C@H](NC(=O)c2ncc(Cl)s2)C1 [Example 309, 5-chloro-N-((1S,3R)-3-(6-((S)-2-cyanopyrrolidin-1-yl)-2-isobutyl-1H-imidazo[4,5-c]pyridin-1-yl)cyclohexyl)thiazole-2-carboxamide] |
| – | – | 100 to 500 nM | 100 to 500 nM | O=C(N[C@@H]1CCC[C@H](n2c(-c3ccccc3F)nc3cnc(-n4nccn4)cc32)[C@H]1O)c1ncc(Cl)s1 [Example 114, 5-chloro-N-((1R,2S,3S)-3-(2-(2-fluorophenyl)-6-(2H-1,2,3-triazol-2-yl)-1H-imidazo[4,5-c]pyridin-1-yl)-2-hydroxycyclohexyl)thiazole-2-carboxamide] |
| – | – | 100 to 500 nM | > 1000 nM | CN1C[C@@H](NC(=O)c2ccc(Cl)s2)C[C@@H](n2c(-c3ccccc3F)nc3cnc(-c4nc[nH]n4)cc32)C1 [Example 265, 5-chloro-N-((3S,5R)-5-(2-(2-fluorophenyl)-6-(1H-1,2,4-triazol-3-yl)-1H-imidazo[4,5-c]pyridin-1-yl)-1-methylpiperidin-3-yl)thiophene-2-carboxamide] |
| – | – | 100 to 500 nM | 100 to 500 nM | O=C(N[C@@H]1C[C@@H](O)C[C@H](n2c(-c3ccccc3F)nc3cnc(-c4ccccn4)cc32)C1)c1ncc(Cl)s1 [Example 253, 5-chloro-N-((1S,3R,5R)-3-(2-(2-fluorophenyl)-6-(pyridin-2-yl)-1H-imidazo[4,5-c]pyridin-1-yl)-5-hydroxycyclohexyl)thiazole-2-carboxamide] |

The next lines start with the compound.

| SMILES | BCAT2 Enzyme Inhibition (BCAT2 [1]) | BCAT2 Cell Inhibition (BCAT2 [2]) | IC50 (BCAT2 [1]) | IC50 (BCAT2 [2]) |
| --- | --- | --- | --- | --- |
| CC(C)Cc1nc2cnc(-c3cccc(C#N)n3)cc2n1[C@H]1CCC[C@@H](NC(=O)c2ncc(Cl)s2)[C@@H]1O [Example 391, 5-chloro-N-((1R,2S,3S)-3-(6-(6-cyanopyridin-2-yl)-2-isobutyl-1H-imidazo[4,5-c]pyridin-1-yl)-2-hydroxycyclohexyl)thiazole-2-carboxamide] | – | E | > 1000 nM | – |
| CO[C@H]1C[C@H](NC(=O)c2ncc(Cl)s2)C[C@H](n2c(CC(C)C)nc3cnc(-c4nc[nH]n4)cc32)C1 (stereo in doubt) [Example 413, 5-chloro-N-((1R,3S,5S)-3-(2-isobutyl-6-(1H-1,2,4-triazol-3-yl)-1H-imidazo[4,5-c]pyridin-1-yl)-5-methoxycyclohexyl)thiazole-2-carboxamide] | – | E | > 1000 nM | – |
| O=C(N[C@@H]1C[C@@H](O)C[C@H](n2c(-c3ccccc3F)nc3cnc(-c4nc[nH]n4)cc32)C1)c1ccc(Cl)s1 [Example 255, 5-chloro-N-((1S,3R,5R)-3-(2-(2-fluorophenyl)-6-(1H-1,2,4-triazol-3-yl)-1H-imidazo[4,5-c]pyridin-1-yl)-5-hydroxycyclohexyl)thiophene-2-carboxamide] | – | – | ≤ 100 nM | 100 to 500 nM |
| CNC(=O)c1cc2nc(CC(C)C)n([C@H]3CCC[C@@H](NC(=O)c4ncc(Cl)s4)[C@@H]3O)c2cn1 [Example 279, 5-chloro-N-((1R,2S,3S)-2-hydroxy-3-(2-isobutyl-6-(methylcarbamoyl)-3H-imidazo[4,5-c]pyridin-3-yl)cyclohexyl)thiazole-2-carboxamide] | – | E | > 1000 nM | – |
| CCn1c(CO)nn(-c2cc3c(cn2)nc(CC(C)C)n3[C@@H]2CCC[C@H](NC(=O)c3ccc(Cl)s3)C2)c1=O [Example 373, 5-chloro-N-((1S,3R)-3-(6-(4-ethyl-3-(hydroxymethyl)-5-oxo-4,5-dihydro-1H-1,2,4-triazol-1-yl)-2-isobutyl-1H-imidazo[4,5-c]pyridin-1-yl)cyclohexyl)thiophene-2-carboxamide] | – | – | ≤ 100 nM | > 1000 nM |
| O=C(O)CCc1ccccc1-c1nc2cnc(-n3nccn3)cc2n1[C@@H]1CCC[C@H](NC(=O)c2ncc(C(F)F)s2)C1 [Example 100, 3-(2-(1-((1R,3S)-3-(5-(difluoromethyl)thiazole-2-carboxamido)cyclohexyl)-6-(2H-1,2,3-triazol-2-yl)-1H-imidazo[4,5-c]pyridin-2-yl)phenyl)propanoic acid] | – | E | 500 to 1000 nM | – |
| CS(=O)(=O)N1C[C@@H](NC(=O)c2ccc(Cl)s2)C[C@@H](n2c(-c3ccccc3F)nc3cnc(-c4nc[nH]n4)cc32)C1 [Example 459, 5-chloro-N-((3S,5R)-5-(2-(2-fluorophenyl)-6-(1H-1,2,4-triazol-3-yl)-1H-imidazo[4,5-c]pyridin-1-yl)-1-(methylsulfonyl)piperidin-3-yl)thiophene-2-carboxamide] | – | – | ≤ 100 nM | 100 to 500 nM |
| Cc1coc(-c2cc3c(cn2)nc(-c2ccccc2F)n3[C@H]2CCC[C@@H](NC(=O)c3ncc(Cl)s3)[C@@H]2O)n1 [Example 237, 5-chloro-N-((1R,2S,3S)-3-(2-(2-fluorophenyl)-6-(4-methyloxazol-2-yl)-1H-imidazo[4,5-c]pyridin-1-yl)-2-hydroxycyclohexyl)thiazole-2-carboxamide] | – | – | 100 to 500 nM | 500 to 1000 nM |
| CC(C)Cc1nc2cnc(-c3cccc(F)n3)cc2n1[C@@H]1C[C@@H](O)C[C@H](NC(=O)c2ncc(Cl)s2)C1 (stereo in doubt) [Example 384, 5-chloro-N-((1R,3S,5S)-3-(6-(6-fluoropyridin-2-yl)-2-isobutyl-1H-imidazo[4,5-c]pyridin-1-yl)-5-hydroxycyclohexyl)thiazole-2-carboxamide] | – | – | > 1000 nM | > 1000 nM |
| CO[C@@H]1C[C@@H](NC(=O)c2ncc(Cl)s2)C[C@@H](n2c(CC(C)(C)C)nc3cnc(-c4ccccn4)cc32)C1 (single isomer, unassigned) [Example 441] | – | E | > 1000 nM | – |
| O=C(N[C@H]1CCC[C@@H](n2c(C3COCCO3)nc3cnc(-c4nc[nH]n4)cc32)C1)c1ncc(Cl)s1 (single isomer, unassigned) [Example 177] | – | E | 500 to 1000 nM | – |
| CC(C)(Cc1nc2cnc(-n3nccn3)cc2n1[C@@H]1CCC[C@H](NC(=O)c2ccc(Cl)s2)C1)C(=O)O [Example 190, 3-(1-((1R,3S)-3-(5-chlorothiophene-2-carboxamido)cyclohexyl)-6-(2H-1,2,3-triazol-2-yl)-1H-imidazo[4,5-c]pyridin-2-yl)-2,2-dimethylpropanoic acid] | – | E | > 1000 nM | – |
| CO[C@@H]1C[C@@H](NC(=O)c2ncc(Cl)s2)C[C@@H](n2c(-c3ncccc3F)nc3cnc(-c4nc[nH]n4)cc32)C1 (single isomer, unassigned) [Example 443] | – | E | > 1000 nM | – |
| CC(C)Cc1nc2cnc(-n3cc(F)cn3)cc2n1[C@H]1CCC[C@@H](NC(=O)c2ncc(Cl)s2)[C@@H]1O [Example 231, 5-chloro-N-((1R,2S,3S)-3-(6-(4-fluoro-1H-pyrazol-1-yl)-2-isobutyl-1H-imidazo[4,5-c]pyridin-1-yl)-2-hydroxycyclohexyl)thiazole-2-carboxamide] | – | E | > 1000 nM | – |
